{"source": "patent US20090306093A1", "about": "“METHOD FOR TREATING PATIENT HAVING BENIGN PROSTATE HYPERPLASIA” (KAOHSIUNG MEDICAL UNIVERSITY, priority 2008, published 2009)", "key": {"[1]": {"system": "ROCK2", "experiment": "Quantitative RT-PCR of Rho kinase (ROCK2) mRNA in PZ-HPV-7 cells", "type": "cell-based, human", "protocol": "[…] After the incubation, total RNA is isolated by processing the PZ-HPV-7 cells with TRI REAGEANT (Molecular Research Center, INC., Cincinnati, Ohio, USA) and 1-bromo-3chloropropane (BCP). Isopropanol was used to precipitate the isolated RNA; ethanol (75%) was used to wash the unwanted solution. The samples were then air-dried for 15 minutes at the room temperature. The pellet was re-suspended in 20 μL of DEPC-water (Ambion). After the RNA isolation, total RNA (2 μg) was used for the reverse transcription to cDNA by High-Capacity cDNA Reverse Transcription Kits (Applied Biosystems).\nQuantitation of Rho kinase and an internal reference gene (GAPDH) were done by fluorescence-based real-time detection (ABI PRISM 7900HT Sequence Detection System (Taqman); Applied Biosystems, Foster City, Calif.). The PCR reaction mixture consisted of 1× TaqMan Master Mix, 1× Probe/primers Assay Mix, 100 ng cDNA, and water containing a reference dye, to a final volume of 20 μL (all reagents from Applied Biosystems). Cycling conditions were 50° C. for 2 minutes, 95° C. for 10 minutes, followed by 40 cycles at 95° C. for 15 second and 60° C. for 1 minute. Gene expression values (relative mRNA levels) are expressed as ratios (differences between the Ct values) between the genes of interest and an internal reference gene (GAPDH) providing a normalization factor for the amount of RNA isolated from cells. This analysis was performed by 7900 HT SDS 2.2.1 software."}, "[2]": {"system": "ROCK2", "experiment": "Western blot of phenylephrine-induced Rho kinase (ROCK2) expression in rat prostate", "details": "KMUP-1 10, 100 μM; Y-27632 10 μM; phenylephrine 10 μM", "protocol": "In order to examine the expression of Rho kinase in prostate, the prostate strips were pre-incubated with phenylephrine (10 μM) for 30 minutes. After a pre-treatment of phenylephrine, KMUP-1 (10-100 μM) and Y-27632 (10 μM) were further incubated for 30 minutes. After the incubation time, the prostate were extracted with protein extraction reagent (Pierce Biotechnology, Inc., Rockford, Ill., USA.). The PZ-HPV-7 cells were incubated with and without KMUP-1 (0.1-10 μM) at 30 minutes, 8 and 24 hours. They were then washed rapidly with ice-cold PBS, incubated with protein extraction reagent, and scraped from the plates. The prostate tissues and cells were sonicated three times for 10 second each time and centrifuged at 13,000 rpm at 4° C. for 30 minutes. The protein concentrations of supernatants were determined, using bovine serum albumin as the standard. Tissue and cell extract protein were then boiled at a ratio of 4:1 with sample buffer (100 mM Tris, pH 6.8, 20% glycerol, 4% SDS, and 0.2% bromphenol blue). 40-60 μg protein was used in this experiment. Electrophoresis was performed using 10 or 12% SDS-polyacrylamide gel electrophoresis and then transferred to nitrocellulose membranes (Millipore Corporation, Billerica, Mass.). […] The intensity of the bands was measured by densitometry."}, "[3]": {"system": "PZ-HPV-7 human prostatic epithelial cells", "experiment": "Trypan blue exclusion assay", "type": "cell-based", "details": "1-100 μM, 24 and 48 hours", "protocol": "PZ-HPV-7, a human prostate epithelial cell line derived from normal peripheral zone tissue and transfected with human papillomavirus type 18, was obtained from the American Type Culture Collection (ATCC). Cells were grown in K-SFM medium supplemented with 100 U/mL penicillin, […], streptomycin 5 ng/ml, EGF human recombinant and 50 µg/mL BPE in 75-cm^2 flasks at 37° C. in a humidified atmosphere of […]. The culture medium was renewed every 2 days and cells were sub-cultured every 6 days. For the experiments, cells were seeded in 24-well plates at a density of 1×10^4 cells/well. After 24 hours and 48 hours, when cells were 80% confluent, KMUP-1 (1-100 μM) was added to the 24-well plates. Cell proliferation was measured using MTT assay (3-[4,5-dimethylthiazol-2-yl]-2,5-diphenyl-tetrazolium bromide, Sigma). The trypan blue […] exclusion assay was performed to determine the proportion of living and dead cells in 24 hours and 48 hours after treatment. After 24 hours and 48 hours of treatment with KMUP-1 (1-100 μM), attached cells were collected by trypsinization. Cells were counted in a hemocytometer using equal volume of cell suspension and trypan blue solution (0.2% in PBS)."}}}
{"smiles": "Cn1c(=O)c2c(ncn2CCN2CCN(c3ccccc3Cl)CC2)n(C)c1=O", "note": "[KMUP-1, 7-[2-[4-(2-Chlorobenzene)piperazinyl]ethyl]-1,3-dimethyl xanthine]", "values": [{"measurement": "Rho kinase gene expression", "setting": "[1]; 1 μM, 24 hours", "result": "96.00±10.00 % of control"}, {"measurement": "Rho kinase gene expression", "setting": "[1]; 1 μM, 48 hours", "result": "90.00±10.05 % of control"}, {"measurement": "Rho kinase gene expression", "setting": "[1]; 10 μM, 24 hours", "result": "80.00±8.80 % of control"}, {"measurement": "Rho kinase gene expression", "setting": "[1]; 10 μM, 48 hours", "result": "66.00±5.80 % of control"}, {"measurement": "Rho kinase gene expression", "setting": "[1]; 100 μM, 24 hours", "result": "68.00±5.01 % of control"}, {"measurement": "Rho kinase gene expression", "setting": "[1]; 100 μM, 48 hours", "result": "52.00±7.01 % of control"}, {"measurement": "phenylephrine-induced Rho kinase expression", "setting": "[2]", "result": "protected against phenylephrine-induced Rho kinase expression"}, {"measurement": "PZ-HPV-7 cell growth, Trypan blue assay", "setting": "[3]", "result": "dose- and time-dependent inhibition"}]}
